The supplement of paper PMC10331698
± gives the standard deviation of the averaged measurements.

Experiments:
Assay in all cases: level (log10 ratio to DMSO vehicle control); higher = higher biomarker level / cell amount than vehicle control
[1] = compound: C=C(C)C(=O)OCCC(F)(F)C(F)(F)C(F)(F)C(F)(F)C(F)(F)C(F)(F)C(F)(F)C(F)(F)F [8:2 Fluorotelomer methacrylate] (in DMSO)
Procedure: (§1)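 BioMAP Diversity Plus panel of 12 human primary cell co-culture systems (3C, 4H, LPS, SAg, BT, BF4T, BE3C, CASM3C, HDF3CGF, KF3CT, MyoF, Mphg). Compounds were added 1 h before stimulation and left for 24 h (MyoF 48 h; BT 72 h for soluble read-outs or 6 d for IgG). Biomarkers were read by ELISA, cytotoxicity by SRB, PBMC viability and proliferation by Alamar Blue. Each well value was divided by the mean of 8 DMSO control wells on the same plate and log10 transformed; duplicate blinded samples were tested at 4 concentrations.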

[2] = compound: CN(C(=O)C(F)(F)C(F)(F)C(F)(F)F)[Si](C)(C)C [N-Methyl-N-trimethylsilylheptafluorobutyramide] (in DMSO)
Procedure: as §1

[3] = compound: CO[Si](C)(CCC(F)(F)C(F)(F)C(F)(F)C(F)(F)C(F)(F)C(F)(F)F)OC [Dimethoxymethyl((perfluorohexyl)ethyl)silane] (in DMSO)
Procedure: as §1

[4] = compound: C[C@@H]1C[C@H]2[C@@H]3CCC4=CC(=O)C=C[C@]4(C)[C@@]3(F)[C@@H](O)C[C@]2(C)[C@@]1(O)C(=O)COP(=O)(O)O [Dexamethasone sodium phosphate] (in DMSO)
Procedure: as §1

[5] = compound: NS(=O)(=O)C(F)(F)C(F)(F)C(F)(F)C(F)(F)C(F)(F)C(F)(F)C(F)(F)C(F)(F)F [Perfluorooctanesulfonamide] (in DMSO)
Procedure: as §1

Perfluoroundecanoic acid = compound: O=C(O)C(F)(F)C(F)(F)C(F)(F)C(F)(F)C(F)(F)C(F)(F)C(F)(F)C(F)(F)C(F)(F)C(F)(F)F [Perfluoroundecanoic acid] (in DMSO); settings: 6700 nM
Procedure: as §1

[6] = compound: O=C(O)C(F)(F)OC(F)(F)C(F)(F)OC(F)(F)C(F)(F)OC(F)(F)C(F)(F)C(F)(F)C(F)(F)F [Perfluoro-3,6,9-trioxatridecanoic acid] (in DMSO); settings: 6700 nM
Procedure: as §1

[7] = compound: O=S(=O)(O)C(F)(F)C(F)(F)C(F)(F)C(F)(F)C(F)(F)C(F)(F)C(F)(F)F [Perfluoroheptanesulfonic acid] (in DMSO)
Procedure: as §1

| Test System | level (log10) ([1]; 6700 nM) | level (log10) ([1]; 20000 nM) | level (log10) ([2]; 6700 nM) | level (log10) ([2]; 20000 nM) | level (log10) ([2]; 60000 nM) | level (log10) ([3]; 6700 nM) | level (log10) ([3]; 20000 nM) | level (log10) ([4]; 1500 nM) | level (log10) ([4]; 4400 nM) | level (log10) ([4]; 13000 nM) | level (log10) ([4]; 40000 nM) | level (log10) ([5]; 6700 nM) | level (log10) ([5]; 20000 nM) | level (log10) (Perfluoroundecanoic acid) | level (log10) [6] | level (log10) ([7]; 1500 nM) | level (log10) ([7]; 4400 nM) | level (log10) ([7]; 13000 nM) | level (log10) ([7]; 40000 nM) |
| --- | --- | --- | --- | --- | --- | --- | --- | --- | --- | --- | --- | --- | --- | --- | --- | --- | --- | --- | --- |
| KF3CT:CD54/ICAM-1 | -0.017 ± 0.013 | 0.004 ± 0.021 | -0.001 ± 0.0028 | -0.0045 ± 0.0092 | -0.0065 ± 0.013 | -0.0135 ± 0.015 | 0.0145 ± 0.0078 | -0.0125 ± 0.0078 | 0.01 ± 0.018 | -0.012 ± 0.011 | -0.003 ± 0.013 | 0.0155 ± 0.023 | -0.0235 ± 0.028 | -0.019 ± 0.0028 | 0.019 ± 0.0042 | -0.013 ± 0.0085 | 0.001 ± 0.0099 | -0.0085 ± 0.0078 | 0.0005 ± 0.0078 |
| HDF3CGF:Proliferation 72hr | -0.0395 ± 0.028 | -0.043 ± 0.069 | 0.0075 ± 0.013 | 0.052 ± 0.042 | 0.0225 ± 0.011 | 0.02 ± 0.011 | 0.007 ± 0.037 | 0.0165 ± 0.011 | -0.0255 ± 0.047 | 0.0645 ± 0.015 | 0.095 ± 0.064 | 0.0105 ± 0.036 | -0.58 ± 0.15 | -0.557 ± 0.11 | -0.827 ± 0.29 | -0.042 ± 0.088 | -0.02 ± 0.031 | 0.076 ± 0.021 | 0.107 ± 0.0042 |
| HDF3CGF:EGFR | -0.048 ± 0.071 | 0.0215 ± 0.091 | -0.0055 ± 0.005 | -0.005 | 0.0195 ± 0.0092 | -0.0055 ± 0.005 | 0 ± 0.018 | -0.0145 ± 0.086 | -0.043 ± 0.071 | -0.039 ± 0.076 | 0.019 ± 0.014 | -0.016 ± 0.014 | -0.171 ± 0.016 | -0.162 ± 0.0014 | -0.101 ± 0.023 | 0.0085 ± 0.026 | -0.024 ± 0.059 | -0.033 ± 0.057 | 0.0245 ± 0.11 |
| HDF3CGF:CCL2/MCP-1 | -0.0095 ± 0.016 | -0.012 ± 0.023 | -0.032 ± 0.0085 | -0.0245 ± 0.0078 | -0.0205 ± 0.028 | -0.026 ± 0.034 | -0.008 ± 0.054 | -0.015 ± 0.035 | -0.0405 ± 0.023 | -0.038 ± 0.0099 | -0.044 ± 0.0085 | -0.0105 ± 0.0064 | -0.567 ± 0.14 | -0.077 ± 0.042 | -0.274 ± 0.013 | 0.006 | 0.0055 ± 0.0035 | 0.005 ± 0.014 | 0.021 ± 0.038 |
| HDF3CGF:CD54/ICAM-1 | 0.0035 ± 0.021 | 0.0055 ± 0.013 | -0.009 ± 0.013 | -0.0085 ± 0.018 | 0.011 ± 0.023 | -0.013 ± 0.0099 | -0.0125 ± 0.012 | 0.004 ± 0.0057 | 0.029 ± 0.042 | 0.01 ± 0.038 | 0.026 ± 0.013 | -0.021 ± 0.0042 | -0.88 ± 0.26 | -0.0765 ± 0.00071 | -0.076 ± 0.016 | 0.0035 ± 0.035 | -0.007 ± 0.028 | 0.0075 ± 0.023 | -0.0165 ± 0.039 |
| MyoF:SRB | 0.0025 ± 0.0064 | -0.0015 ± 0.005 | 0.0035 ± 0.012 | 0.0035 ± 0.0035 | 0.0055 ± 0.0035 | 0.0045 ± 0.0064 | 0.0005 ± 0.00071 | -0.01 ± 0.0099 | -0.0105 ± 0.0035 | -0.0135 ± 0.0092 | -0.0105 ± 0.00071 | -0.0135 ± 0.0035 | -0.136 ± 0.0021 | -0.029 ± 0.014 | -0.0815 ± 0.0064 | -0.009 ± 0.0099 | 0.002 ± 0.0028 | 0.002 ± 0.0014 | -0.007 ± 0.0042 |
| MyoF:Collagen III | -0.029 ± 0.017 | -0.005 ± 0.028 | 0.006 ± 0.0028 | 0.007 ± 0.0028 | -0.003 ± 0.0085 | 0.0175 ± 0.019 | -0.011 ± 0.011 | 0.0055 ± 0.021 | 0.0255 ± 0.035 | 0.0185 ± 0.021 | 0.028 ± 0.018 | -0.014 ± 0.0099 | -0.242 ± 0.023 | -0.3895 ± 0.00071 | -0.894 ± 0.12 | -0.0035 ± 0.022 | 0.002 ± 0.0085 | -0.0195 ± 0.013 | -0.006 ± 0.025 |
| KF3CT:uPA | -0.0095 ± 0.00071 | -0.0205 ± 0.012 | -0.0045 ± 0.019 | 0.0135 ± 0.005 | 0.0115 ± 0.0078 | 0.0015 ± 0.0092 | -0.015 ± 0.0028 | 0 ± 0.011 | 0.012 ± 0.0085 | -0.0085 ± 0.00071 | -0.006 ± 0.017 | 0.0165 ± 0.0064 | -0.093 ± 0.0014 | 0.0125 ± 0.018 | 0.027 ± 0.0057 | 0.008 | -0.0165 ± 0.00071 | -0.0195 ± 0.005 | -0.0055 ± 0.0021 |
| KF3CT:PAI-I | -0.022 ± 0.037 | -0.015 ± 0.013 | -0.02 ± 0.025 | -0.004 ± 0.014 | -0.0005 ± 0.0078 | 0.0045 ± 0.0064 | 0.009 ± 0.014 | 0.0055 ± 0.0021 | 0.0235 ± 0.0092 | 0.002 ± 0.025 | 0.006 | 0.03 ± 0.027 | -0.108 ± 0.054 | -0.11 ± 0.013 | -0.126 | 0.001 ± 0.028 | 0.002 ± 0.035 | -0.01 ± 0.034 | -0.034 ± 0.0099 |
| MyoF:bFGF | -0.0105 ± 0.00071 | 0.011 ± 0.014 | 0.0025 ± 0.0078 | 0.012 ± 0.0042 | 0.0125 ± 0.012 | 0.002 ± 0.0085 | 0.0055 ± 0.011 | -0.035 ± 0.042 | -0.0165 ± 0.035 | -0.042 ± 0.031 | -0.028 ± 0.0042 | 0.0115 ± 0.00071 | -0.0145 ± 0.0021 | 0.0035 ± 0.0092 | -0.059 ± 0.03 | 0.021 ± 0.0071 | 0.0185 ± 0.005 | 0.0105 ± 0.00071 | 0.039 ± 0.02 |
| HDF3CGF:MMP-1 | 0.013 ± 0.011 | 0.009 ± 0.018 | -0.0195 ± 0.016 | -0.015 ± 0.014 | -0.008 ± 0.045 | -0.0165 ± 0.018 | -0.005 ± 0.042 | -0.0695 ± 0.011 | -0.065 ± 0.016 | -0.098 ± 0.018 | -0.081 ± 0.042 | 0.0145 ± 0.026 | -0.206 ± 0.096 | -0.004 ± 0.0057 | -0.134 ± 0.054 | 0.0235 ± 0.013 | 0.013 ± 0.014 | 0.0205 ± 0.018 | 0.009 ± 0.024 |
| BE3C:MMP-1 | 0.0135 ± 0.012 | -0.003 ± 0.0057 | -0.0015 ± 0.011 | -0.02 ± 0.0071 | 0.0295 ± 0.033 | -0.0085 ± 0.03 | 0.034 ± 0.033 | -0.113 ± 0.059 | -0.0825 ± 0.11 | -0.137 ± 0.052 | -0.141 ± 0.069 | 0.084 ± 0.021 | 0.154 ± 0.014 | 0.135 ± 0.011 | -0.471 ± 0.023 | 0.011 ± 0.018 | 0.019 ± 0.023 | 0.05 ± 0.021 | 0.133 ± 0.022 |
| lMphg:M-CSF | -0.013 ± 0.018 | -0.0365 ± 0.022 | -0.033 ± 0.014 | -0.018 ± 0.025 | -0.0045 ± 0.0064 | -0.0075 ± 0.036 | 0.0135 ± 0.025 | -0.022 ± 0.034 | -0.031 ± 0.058 | -0.0455 ± 0.028 | -0.0495 ± 0.0021 | -0.0445 ± 0.0092 | -0.029 ± 0.021 | 0.016 ± 0.02 | 0.023 ± 0.0071 | -0.0065 ± 0.023 | -0.01 ± 0.037 | -0.0285 ± 0.039 | -0.0285 ± 0.0035 |
| MyoF:MMP-1 | -0.015 ± 0.02 | -0.0075 ± 0.0021 | -0.007 ± 0.0028 | -0.0055 ± 0.005 | -0.017 ± 0.018 | -0.001 ± 0.011 | -0.012 ± 0.017 | 0.004 ± 0.031 | 0.005 ± 0.0014 | -0.0315 ± 0.013 | -0.0125 ± 0.005 | -0.038 ± 0.013 | 0.0955 ± 0.04 | -0.036 ± 0.018 | 0.0205 ± 0.029 | 0.0105 ± 0.039 | -0.0055 ± 0.015 | -0.03 ± 0.0085 | 0.01 ± 0.044 |
